According to PubChem BioAssay AID248 (DTP/NCI, 2004):
Several values for one entry are separate records, joined by “and”; a condition that tells them apart may be missing. Identical values can stand only once. Toxic doses and inconclusive results are not listed. Peptide text beside a SMILES is read from it.

Tested on: L1210 leukemia ip in BDF1 mice, survival T/C
Experiment: NCI In Vivo Anticancer Drug Screen. Data for tumor model L1210 Leukemia (intraperitoneal) in B6D2F1 (BDF1) mice
Details: endpoint: mean survival time, higher = longer survival
In short: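 Antitumor effect is assessed in tumor-bearing animals. Survival in the compound arm is compared with a vehicle-dosed control arm and expressed as their quotient.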

[1] = dose: 50.0 mg/kg/injection, schedule: Q04DX003 (ip), vehicle: Klucel (hydroxypropylcellulose) (HPC)
[2] = dose: 100.0 mg/kg/injection, schedule: Q01DX001 (ip), vehicle: saline
[3] = dose: 200.0 mg/kg/injection, schedule: Q01DX001 (ip), vehicle: saline
[4] = dose: 400.0 mg/kg/injection, schedule: Q01DX001 (ip), vehicle: saline
[5] = dose: 50.0 mg/kg/injection, schedule: Q01DX001 (ip), vehicle: carboxymethylcellulose (CMC)
[6] = dose: 100.0 mg/kg/injection, schedule: Q01DX001 (ip), vehicle: carboxymethylcellulose (CMC)
[7] = dose: 100.0 mg/kg/injection, schedule: Q04DX003 (ip), vehicle: saline with Tween-80
[8] = dose: 200.0 mg/kg/injection, schedule: Q01DX001 (ip), vehicle: carboxymethylcellulose (CMC)
[9] = dose: 200.0 mg/kg/injection, schedule: Q04DX003 (ip), vehicle: saline with Tween-80
[10] = dose: 400.0 mg/kg/injection, schedule: Q01DX001 (ip), vehicle: carboxymethylcellulose (CMC)
[11] = dose: 400.0 mg/kg/injection, schedule: Q04DX003 (ip), vehicle: saline with Tween-80
[12] = dose: 100.0 mg/kg/injection, schedule: Q04DX003 (ip), vehicle: saline
[13] = dose: 100.0 mg/kg/injection, schedule: Q04DX003 (ip), vehicle: Klucel (hydroxypropylcellulose) (HPC)
[14] = dose: 200.0 mg/kg/injection, schedule: Q04DX003 (ip), vehicle: Klucel (hydroxypropylcellulose) (HPC)
[15] = dose: 100.0 mg/kg/injection, schedule: Q01DX009 (ip), vehicle: Klucel (hydroxypropylcellulose) (HPC)
[16] = dose: 200.0 mg/kg/injection, schedule: Q01DX009 (ip), vehicle: Klucel (hydroxypropylcellulose) (HPC)
[17] = dose: 400.0 mg/kg/injection, schedule: Q01DX009 (ip), vehicle: Klucel (hydroxypropylcellulose) (HPC)
[18] = dose: 100.0 mg/kg/injection, schedule: Q04DX002 (ip), vehicle: saline
[19] = dose: 200.0 mg/kg/injection, schedule: Q04DX002 (ip), vehicle: saline
[20] = dose: 400.0 mg/kg/injection, schedule: Q04DX002 (ip), vehicle: saline
[21] = dose: 100.0 mg/kg/injection, schedule: Q04DX002 (ip), vehicle: saline with Tween-80
[22] = dose: 200.0 mg/kg/injection, schedule: Q04DX002 (ip), vehicle: saline with Tween-80
[23] = dose: 400.0 mg/kg/injection, schedule: Q04DX002 (ip), vehicle: saline with Tween-80
[24] = dose: 100.0 mg/kg/injection, schedule: Q01DX009 (ip), vehicle: saline with Tween-80
[25] = dose: 100.0 mg/kg/injection, schedule: Q01DX009 (ip), vehicle: saline
[26] = dose: 200.0 mg/kg/injection, schedule: Q01DX009 (ip), vehicle: saline
[27] = dose: 400.0 mg/kg/injection, schedule: Q01DX009 (ip), vehicle: saline
[28] = dose: 400.0 mg/kg/injection, schedule: Q04DX003 (ip), vehicle: Klucel (hydroxypropylcellulose) (HPC)

CC(=Nc1c2c(nc3ccccc13)CCCC2)N(C)C
T/C (dose: 12.0 mg/kg/injection, schedule: Q04DX003 (ip), vehicle: Klucel (hydroxypropylcellulose) (HPC)): 105 % of control
T/C (dose: 25.0 mg/kg/injection, schedule: Q04DX003 (ip), vehicle: Klucel (hydroxypropylcellulose) (HPC)): 100 % of control
T/C [1]: 104 % of control

NCCCCC(N)C(=O)NC(CCCN=C(N)N)C(=O)O (stereo not drawn) (H-Lys-Arg-OH; configuration not given here)
T/C (dose: 50.0 mg/kg/injection, schedule: Q04DX003 (ip), vehicle: water): 117 % of control
T/C (dose: 100.0 mg/kg/injection, schedule: Q01DX009 (ip), vehicle: water): 108 % of control
T/C (dose: 100.0 mg/kg/injection, schedule: Q04DX003 (ip), vehicle: water): 121 % of control
T/C (dose: 200.0 mg/kg/injection, schedule: Q01DX009 (ip), vehicle: water): 97 % of control
T/C (dose: 200.0 mg/kg/injection, schedule: Q04DX003 (ip), vehicle: water): 111 % of control
T/C (dose: 400.0 mg/kg/injection, schedule: Q04DX003 (ip), vehicle: water): 115 % of control

N#Cc1cnc(SCC(=O)O)nc1N
T/C [2]: 96 % of control
T/C [3]: 102 % of control
T/C [4]: 102 % of control

COc1ccc(/C(C#N)=C2C=C/C(=N\O)C(C)=C/2Cl)cc1
T/C [5]: 109 % of control
T/C [6]: 96 % of control
T/C [7]: 92 % of control
T/C [8]: 93 % of control
T/C [9]: 106 % of control
T/C [10]: 91 % of control
T/C [11]: 97 % of control

CCN(CC)CCOc1ccccc1C(C)C
T/C (dose: 20.0 mg/kg/injection, schedule: Q04DX003 (ip), vehicle: saline): 118 % of control
T/C (dose: 40.0 mg/kg/injection, schedule: Q04DX003 (ip), vehicle: saline): 97 % of control
T/C (dose: 80.0 mg/kg/injection, schedule: Q04DX003 (ip), vehicle: saline): 94 % of control
T/C [12]: 101 % of control

CC#CC(C)=O
T/C (dose: 25.0 mg/kg/injection, schedule: Q04DX003 (ip), vehicle: saline): 100 % of control
T/C (dose: 50.0 mg/kg/injection, schedule: Q04DX003 (ip), vehicle: saline): 92 % of control
T/C [12]: 100 % of control

O=C(O)C(c1ccccc1)N1C(=O)c2ccccc2C1=O (centres undefined)
T/C [1]: 104 % of control
T/C [13]: 109 % of control
T/C [14]: 104 % of control

CC1(C)OC(=O)C(C(N)=O)C1c1ccc(Cl)cc1 (centres undefined)
T/C [2]: 103 % of control
T/C [3]: 104 % of control
T/C [4]: 103 % of control

Clc1cccc(Cl)c1C[n+]1ccccc1
T/C (dose: 9.38 mg/kg/injection, schedule: Q01DX001 (ip), vehicle: saline): 110 % of control
T/C (dose: 18.75 mg/kg/injection, schedule: Q01DX001 (ip), vehicle: saline): 110 % of control

O=[N+]([O-])c1ccc(N2CCCCC2)nc1
T/C [5]: 115 % of control
T/C [6]: 91 % of control
T/C [8]: 115 % of control
T/C [10]: 97 % of control

Nc1cc2c(cc1[N+](=O)[O-])-c1ccc([N+](=O)[O-])cc1C2=O
T/C [5]: 98 % of control
T/C [6]: 113 % of control
T/C [8]: 98 % of control
T/C [10]: 109 % of control

O=C(Nc1ccc(Cl)cc1)Oc1ccc(Br)cc1Br
T/C [15]: 100 % of control
T/C [16]: 96 % of control
T/C [17]: 104 % of control

O=C(CCC(=O)NO)NO
T/C [18]: 110 % of control
T/C [19]: 103 % of control
T/C [20]: 97 % of control

O=C(O)c1c(F)cccc1Cl
T/C [21]: 93 % of control
T/C [22]: 108 % of control
T/C [23]: 106 % of control

Nc1ccc(S(=O)O)cc1
T/C [24]: 94 % of control
T/C [7]: 105 % of control
T/C (dose: 200.0 mg/kg/injection, schedule: Q01DX009 (ip), vehicle: saline with Tween-80): 91 % of control
T/C [9]: 95 % of control
T/C (dose: 400.0 mg/kg/injection, schedule: Q01DX009 (ip), vehicle: saline with Tween-80): 94 % of control
T/C [11]: 91 % of control

O=C(O)CN1C(=O)c2ccccc2C1=O
T/C (dose: 25.0 mg/kg/injection, schedule: Q01DX009 (ip), vehicle: saline with Tween-80): 91 % of control
T/C (dose: 50.0 mg/kg/injection, schedule: Q01DX009 (ip), vehicle: saline with Tween-80): 98 % of control
T/C [24]: 98 % of control
T/C [21]: 100 % of control
T/C [22]: 103 % of control
T/C [23]: 95 % of control

CN(C)CCCOc1c2ccccc2cc2ccccc12
T/C (dose: 1.0 mg/kg/injection, schedule: Q01DX015 (ip), vehicle: carboxymethylcellulose (CMC)): 92 % of control
T/C (dose: 2.0 mg/kg/injection, schedule: Q01DX015 (ip), vehicle: carboxymethylcellulose (CMC)): 92 % of control
T/C (dose: 4.0 mg/kg/injection, schedule: Q01DX015 (ip), vehicle: carboxymethylcellulose (CMC)): 92 % of control
T/C (dose: 8.0 mg/kg/injection, schedule: Q01DX015 (ip), vehicle: carboxymethylcellulose (CMC)): 104 % of control and 90 % of control
T/C (dose: 16.0 mg/kg/injection, schedule: Q01DX015 (ip), vehicle: carboxymethylcellulose (CMC)): 98 % of control

CN(C)CC(=O)O
T/C [25]: 94 % of control
T/C [26]: 94 % of control
T/C [27]: 94 % of control

Cc1ncc(Br)c(C(=O)O)n1
T/C (dose: 50.0 mg/kg/injection, schedule: Q01DX001 (ip), vehicle: saline): 101 % of control
T/C [2]: 98 % of control
T/C [15]: 106 % of control
T/C [3]: 95 % of control
T/C [16]: 113 % of control
T/C [4]: 90 % of control
T/C [17]: 110 % of control

CCN(CC)c1ccc(Cc2ccc3c(c2O)C(=O)c2c(O)cccc2C3=O)cc1
T/C [25]: 94 % of control
T/C [18]: 101 % of control
T/C [26]: 96 % of control
T/C [19]: 92 % of control
T/C [27]: 97 % of control
T/C [20]: 89 % of control

O=C(O)CC(CS(=O)O)C(=O)O (centres undefined)
T/C (dose: 100.0 mg/kg/injection, schedule: Q01DX001 (ip), vehicle: saline with Tween-80): 91 % of control

COc1ccc(C2(C#N)CCCCC2)cc1
T/C [15]: 109 % of control
T/C [13]: 97 % of control
T/C [16]: 98 % of control
T/C [14]: 100 % of control
T/C [17]: 94 % of control
T/C [28]: 101 % of control

CC(=O)N1Cc2ccc(/C=C(/C#N)C(N)=O)n2Cc2cc3c(cc21)OCO3
T/C (dose: 25.0 mg/kg/injection, schedule: Q04DX002 (ip), vehicle: Klucel (hydroxypropylcellulose) (HPC)): 91 % of control
T/C (dose: 50.0 mg/kg/injection, schedule: Q04DX002 (ip), vehicle: Klucel (hydroxypropylcellulose) (HPC)): 98 % of control
T/C (dose: 100.0 mg/kg/injection, schedule: Q04DX002 (ip), vehicle: Klucel (hydroxypropylcellulose) (HPC)): 91 % of control

CC1CCC2(CC3C(CC(C4CCC5CC(O)CCC5(C)C4CC(=O)O)C3(C)O)O2)OC1 (centres undefined)
T/C (dose: 75.0 mg/kg/injection, schedule: Q04DX003 (ip), vehicle: saline): 89 % of control
T/C (dose: 150.0 mg/kg/injection, schedule: Q04DX003 (ip), vehicle: saline): 100 % of control
T/C (dose: 300.0 mg/kg/injection, schedule: Q04DX003 (ip), vehicle: saline): 87 % of control

CC(C)(C)c1cc(-c2cc(C(C)(C)C)c(O)c(C(C)(C)C)c2)cc(C(C)(C)C)c1O
T/C [13]: 104 % of control
T/C [14]: 107 % of control
T/C [28]: 98 % of control

C(=N\Nc1nn[nH]n1)/c1ccccc1
T/C [24]: 202 % of control
T/C [7]: 95 % of control
T/C [9]: 97 % of control
T/C [11]: 103 % of control

O=C1OC(=C(c2ccccc2)c2ccccc2)c2ccccc21
T/C [25]: 100 % of control
T/C [7]: 96 % of control
T/C [26]: 100 % of control
T/C [9]: 96 % of control
T/C [11]: 90 % of control
